Patent US8471005B2 (Cephalon, Inc., priority 2008, dated 2013)

Tests used:
ALK = molecular target: T1, ALK (Homo sapiens, UniProt Q9UM73); assay: ALK Kinase Assay (ELISA/TRF, PLC-γ substrate); type: biochemical; settings: ALK Kinase Inhibition; read-out: ALK Potency
T1 construct: host or cells: baculovirus expression system
In short: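 Wells were coated with 10 μg/mL phospholipase C-γ substrate in TBS, and the reaction was started by adding 30 ng/ml ALK enzyme and run at 37° C for 15 minutes. Phosphorylated product was detected with Eu-N1-labeled PT66 antibody, and IC50 values came from sigmoidal variable-slope fits of percent inhibition against log concentration.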

JAK2 = molecular target: T2, JAK2 (Homo sapiens, UniProt O60674); assay: Recombinant Human JAK2 Kinase Assay (TRF); type: biochemical; settings: JAK2 Kinase Inhibition; read-out: JAK2 Potency
T2 construct: host or cells: baculovirus expression system
In short: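 Kinase activity of baculovirus-expressed JAK2 is followed on a surface-immobilised biotinylated peptide, with the reaction run for 20 min at room temperature in buffer containing 0.2 μM ATP and manganese. Phosphorylation is read with Eu-N1 PY100 antibody.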

T2 sequence (O60674 whole entry): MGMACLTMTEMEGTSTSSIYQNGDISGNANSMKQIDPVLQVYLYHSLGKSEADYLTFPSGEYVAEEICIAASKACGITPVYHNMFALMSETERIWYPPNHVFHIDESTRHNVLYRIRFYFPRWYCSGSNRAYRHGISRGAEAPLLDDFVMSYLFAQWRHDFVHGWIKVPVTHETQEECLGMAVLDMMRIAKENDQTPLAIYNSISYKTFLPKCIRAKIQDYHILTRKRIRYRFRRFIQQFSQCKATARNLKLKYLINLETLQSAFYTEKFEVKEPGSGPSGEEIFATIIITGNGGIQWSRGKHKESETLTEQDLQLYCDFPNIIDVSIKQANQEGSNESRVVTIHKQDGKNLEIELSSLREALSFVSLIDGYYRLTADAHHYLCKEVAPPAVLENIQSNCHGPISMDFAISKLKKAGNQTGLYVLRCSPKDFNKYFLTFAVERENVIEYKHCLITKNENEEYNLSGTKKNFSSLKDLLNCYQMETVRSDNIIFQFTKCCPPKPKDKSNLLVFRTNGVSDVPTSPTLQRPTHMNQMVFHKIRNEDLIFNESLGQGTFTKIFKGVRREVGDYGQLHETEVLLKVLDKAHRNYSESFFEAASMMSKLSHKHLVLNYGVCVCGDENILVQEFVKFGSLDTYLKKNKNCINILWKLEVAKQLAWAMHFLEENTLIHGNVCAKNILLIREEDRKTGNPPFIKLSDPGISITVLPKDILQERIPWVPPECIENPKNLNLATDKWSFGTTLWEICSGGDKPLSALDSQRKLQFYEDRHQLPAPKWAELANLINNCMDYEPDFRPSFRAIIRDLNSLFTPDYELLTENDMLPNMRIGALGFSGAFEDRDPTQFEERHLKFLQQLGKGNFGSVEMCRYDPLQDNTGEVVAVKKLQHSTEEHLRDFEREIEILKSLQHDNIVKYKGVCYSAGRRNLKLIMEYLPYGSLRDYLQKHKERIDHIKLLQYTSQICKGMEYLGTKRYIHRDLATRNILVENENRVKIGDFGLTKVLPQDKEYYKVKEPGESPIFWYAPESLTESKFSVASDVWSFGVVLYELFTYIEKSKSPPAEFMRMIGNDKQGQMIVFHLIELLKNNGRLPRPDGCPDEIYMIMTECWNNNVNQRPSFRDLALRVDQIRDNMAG
T1 sequence (Q9UM73 19-1620): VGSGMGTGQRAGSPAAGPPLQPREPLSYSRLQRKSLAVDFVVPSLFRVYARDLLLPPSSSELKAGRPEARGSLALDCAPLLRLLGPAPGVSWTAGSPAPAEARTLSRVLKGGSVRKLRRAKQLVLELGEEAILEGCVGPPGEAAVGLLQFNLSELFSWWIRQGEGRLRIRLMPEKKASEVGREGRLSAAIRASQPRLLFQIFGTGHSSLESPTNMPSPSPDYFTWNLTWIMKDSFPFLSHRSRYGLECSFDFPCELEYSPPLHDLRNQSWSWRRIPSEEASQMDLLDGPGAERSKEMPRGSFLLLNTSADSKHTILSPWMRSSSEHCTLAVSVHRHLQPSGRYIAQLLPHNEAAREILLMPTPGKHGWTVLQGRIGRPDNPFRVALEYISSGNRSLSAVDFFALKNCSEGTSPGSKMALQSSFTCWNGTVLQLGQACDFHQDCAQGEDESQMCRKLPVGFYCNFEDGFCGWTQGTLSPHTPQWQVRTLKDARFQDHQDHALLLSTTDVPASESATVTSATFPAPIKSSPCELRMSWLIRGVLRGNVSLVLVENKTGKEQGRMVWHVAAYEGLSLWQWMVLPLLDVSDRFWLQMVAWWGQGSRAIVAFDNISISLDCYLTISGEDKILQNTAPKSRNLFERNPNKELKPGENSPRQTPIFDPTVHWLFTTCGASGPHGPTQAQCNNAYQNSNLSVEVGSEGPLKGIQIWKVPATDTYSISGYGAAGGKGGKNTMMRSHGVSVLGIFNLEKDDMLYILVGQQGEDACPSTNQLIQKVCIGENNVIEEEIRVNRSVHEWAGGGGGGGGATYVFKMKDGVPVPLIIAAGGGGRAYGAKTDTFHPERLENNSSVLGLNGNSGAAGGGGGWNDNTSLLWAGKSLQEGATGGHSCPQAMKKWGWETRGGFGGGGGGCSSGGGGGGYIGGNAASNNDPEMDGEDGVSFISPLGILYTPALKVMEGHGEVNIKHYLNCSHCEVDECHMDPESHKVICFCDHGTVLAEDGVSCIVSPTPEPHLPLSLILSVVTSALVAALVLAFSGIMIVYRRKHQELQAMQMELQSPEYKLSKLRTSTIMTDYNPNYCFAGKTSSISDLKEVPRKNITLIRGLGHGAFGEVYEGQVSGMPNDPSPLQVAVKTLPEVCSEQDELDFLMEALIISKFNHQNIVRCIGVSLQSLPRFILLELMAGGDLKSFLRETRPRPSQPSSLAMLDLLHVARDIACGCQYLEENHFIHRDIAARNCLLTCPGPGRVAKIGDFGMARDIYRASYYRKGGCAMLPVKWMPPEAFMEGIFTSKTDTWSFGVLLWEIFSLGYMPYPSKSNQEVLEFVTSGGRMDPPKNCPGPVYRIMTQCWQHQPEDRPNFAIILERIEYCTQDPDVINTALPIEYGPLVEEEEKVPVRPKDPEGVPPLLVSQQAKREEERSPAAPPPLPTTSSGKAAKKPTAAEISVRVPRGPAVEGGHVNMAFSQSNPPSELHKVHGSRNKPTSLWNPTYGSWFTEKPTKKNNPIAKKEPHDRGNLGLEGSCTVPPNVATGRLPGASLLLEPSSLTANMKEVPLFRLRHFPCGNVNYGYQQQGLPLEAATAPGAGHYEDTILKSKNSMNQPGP

Row | SMILES | IC50 (ALK) | IC50 (JAK2)
1 | COc1ccc(OC)c(-c2ccc3cnc(Nc4ccc(N5CCC(N6CCOCC6)CC5)cc4OC)nn23)c1 [Example 1476, [7-(2,5-Dimethoxy-phenyl)-pyrrolo[2,1-f][1,2,4]triazin-2-yl]-[2-methoxy-4-(4-morpholin-4-yl-piperidin-1-yl)-phenyl]-amine] | < 100 nM | 100 to 1000 nM
2 | COc1ccc(OC)c(-c2ccc3cnc(Nc4ccc(N5CCN(C[C@H](C)O)CC5)cc4OC)nn23)c1 [Example 1477, (S)-1-(4-{4-[7-(2,5-Dimethoxy-phenyl)-pyrrolo[2,1-f][1,2,4]triazin-2-ylamino]-3-methoxy-phenyl}-piperazin-1-yl)-propan-2-ol] | < 100 nM | 1000 to 10000 nM
3 | COc1c(Nc2ncc3ccc(-c4ccccc4N(C)S(C)(=O)=O)n3n2)ccc(N2CCN(C[C@H](C)O)CC2)c1F [Example 1478, N-[2-(2-{3-Fluoro-4-[4-((S)-2-hydroxy-propyl)-piperazin-1-yl]-2-methoxy-phenylamino}-pyrrolo[2,1-f][1,2,4]triazin-7-yl)-phenyl]-N-methyl-methanesulfonamide] | < 100 nM | 1000 to 10000 nM
4 | COc1cc(N2CCN(C[C@H](C)O)CC2)c(F)cc1Nc1ncc2ccc(-c3ccccc3N(C)S(C)(=O)=O)n2n1 [Example 1479, N-[2-(2-{5-Fluoro-4-[4-((S)-2-hydroxy-propyl)-piperazin-1-yl]-2-methoxy-phenylamino}-pyrrolo[2,1-f][1,2,4]triazin-7-yl)-phenyl]-N-methyl-methanesulfonamide] | < 100 nM | 100 to 1000 nM
5 | COc1cc(N2CCN(C[C@H](C)O)CC2)c(F)cc1Nc1ncc2ccc(-c3ccccc3OC)n2n1 [Example 1480, (S)-1-(4-{2-Fluoro-5-methoxy-4-[7-(2-methoxy-phenyl)-pyrrolo[2,1-f][1,2,4]triazin-2-ylamino]-phenyl}-piperazin-1-yl)-propan-2-ol] | < 100 nM | 100 to 1000 nM
6 | COc1ccccc1-c1ccc2cnc(Nc3cc(F)c(N4CCN(C[C@H](C)O)CC4)cc3F)nn12 [Example 1481, (S)-1-(4-{2,5-Difluoro-4-[7-(2-methoxy-phenyl)-pyrrolo[2,1-f][1,2,4]triazin-2-ylamino]-phenyl}-piperazin-1-yl)-propan-2-ol] | < 100 nM | < 100 nM
7 | C[C@H](O)CN1CCN(c2cc(F)c(Nc3ncc4ccc(-c5ccccc5N(C)S(C)(=O)=O)n4n3)cc2F)CC1 [Example 1482, N-[2-(2-{2,5-Difluoro-4-[4-((S)-2-hydroxy-propyl)-piperazin-1-yl]-phenylamino}-pyrrolo[2,1-f][1,2,4]triazin-7-yl)-phenyl]-N-methyl-methanesulfonamide] | 100 to 1000 nM | < 100 nM
8 | CSc1cc(N2CCN(C[C@H](C)O)CC2)c(F)cc1Nc1ncc2ccc(-c3ccccc3N(C)S(C)(=O)=O)n2n1 [Example 1483, N-[2-(2-{5-Fluoro-4-[4-((S)-2-hydroxy-propyl)-piperazin-1-yl]-2-methylsulfanyl-phenylamino}-pyrrolo[2,1-f][1,2,4]triazin-7-yl)-phenyl]-N-methyl-methanesulfonamide] | < 100 nM | 1000 to 10000 nM
9 | C[C@H](O)CN1CCN(c2cc([S@@+](C)[O-])c(Nc3ncc4ccc(-c5ccccc5N(C)S(C)(=O)=O)n4n3)cc2F)CC1 [Example 1484, (R,S)—N-[2-(2-{5-Fluoro-4-[4-((S)-2-hydroxy-propyl)-piperazin-1-yl]-2-methanesulfinyl-phenylamino}-pyrrolo[2,1-f][1,2,4]triazin-7-yl)-phenyl]-N-methyl-methanesulfonamide] | < 100 nM | < 100 nM
10 | C[C@H](O)CN1CCN(c2cc([S@@+](C)[O-])c(Nc3ncc4ccc(-c5ccccc5N(C)S(C)(=O)=O)n4n3)cc2F)CC1 [Example 1485, (R,S)—N-[2-(2-{5-Fluoro-4-[4-((S)-2-hydroxy-propyl)-piperazin-1-yl]-2-methanesulfinyl-phenylamino}-pyrrolo[2,1-f][1,2,4]triazin-7-yl)-phenyl]-N-methyl-methanesulfonamide] | 100 to 1000 nM | < 100 nM
